The conditions of series [1]: DCM.
A further series concerns the target human PCSK9 (Homo sapiens, UniProt Q8NBP7). As to the kind of experiment: PCSK9 ligand binding assay (TR-FRET): interference with binding of human PCSK9 to human LDLR. Particulars: for IC50: Human PCSK9 Alexa Fluor 647 / Human LDLR extracellular domain-Europium Kryptate; for Max % inhibition: efficacy (Amax), 100% = 1 uM unlabeled human PCSK9, 0% = DMSO. An outline of the steps:
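Read-out was TR-FRET ratio (665 nm over 615 nm, 330 nm excitation) between Alexa Fluor 647-human PCSK9 (16 nM added) and Europium Kryptate-human LDLR ectodomain (4 nM added). Compound and PCSK9 were mixed 30 min before LDLR, then incubated 2 h. Inhibition was normalised to DMSO and unlabelled-PCSK9 controls, giving IC50 and Amax.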
For orientation: Time-resolved FRET reads energy transfer from a long-lived donor to a nearby acceptor.

Where two headings read alike, the source gives them in different places.

The record followed here is US11813306B2, “Cyclic tetramer compounds as proprotein convertase subtilisin/kexin type 9 (PCSK9) inhibitors for the treatment of metabolic disorders” (NOVARTIS AG, priority 2018, dated 2023).

Chain of human PCSK9 (Q8NBP7 153-692): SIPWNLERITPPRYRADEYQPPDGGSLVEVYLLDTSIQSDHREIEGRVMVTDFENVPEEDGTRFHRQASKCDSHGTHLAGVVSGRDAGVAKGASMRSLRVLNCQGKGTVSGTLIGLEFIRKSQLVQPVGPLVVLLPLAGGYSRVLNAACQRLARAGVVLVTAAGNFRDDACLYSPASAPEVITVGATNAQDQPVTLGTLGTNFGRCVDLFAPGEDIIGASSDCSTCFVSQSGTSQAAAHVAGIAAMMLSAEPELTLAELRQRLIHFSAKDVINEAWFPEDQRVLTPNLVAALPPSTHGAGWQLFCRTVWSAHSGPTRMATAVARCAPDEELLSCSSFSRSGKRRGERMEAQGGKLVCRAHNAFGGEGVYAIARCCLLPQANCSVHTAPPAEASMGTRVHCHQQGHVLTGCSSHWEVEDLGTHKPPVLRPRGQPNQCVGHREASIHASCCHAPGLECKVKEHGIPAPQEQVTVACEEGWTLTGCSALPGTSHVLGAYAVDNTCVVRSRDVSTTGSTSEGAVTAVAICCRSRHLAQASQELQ
Chain of human PCSK9 (Q8NBP7 31-152 partner limits assumed): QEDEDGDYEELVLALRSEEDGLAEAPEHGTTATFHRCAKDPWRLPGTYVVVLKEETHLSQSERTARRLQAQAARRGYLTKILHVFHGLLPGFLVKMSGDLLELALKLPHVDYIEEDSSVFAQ

As a reminder, the IC50 is the midpoint of a concentration-inhibition curve. In series [1] (from COC[C@H](NC(=O)[C@H](C)NCc1c(F)cc(Cl)cc1Oc1ccc(-c2cnc(CN(C)C)n2C)cc1)C(=O)N(C)[C@@]1(Cc2ccc(Cl)cc2)CCCN(C(=O)[C@@H](CC(=O)O)Cc2cccc(C)n2)C1, amide bond, HATU/HOAt/2,6-lutidine, 1.59 mM, 48.0 °C, 16.0 h), `COC[C@@H]1NC(=O)[C@H](C)N(Cc2c(F)cc(Cl)cc2Oc2ccc(-c3cnc(CN(C)C)n3C)cc2)C(=O)C[C@@H](Cc2cccc(C)n2)C(=O)N2CCC[C@@](Cc3ccc(Cl)cc3)(C2)N(C)C1=O` [Compound 13, (3R,7S,10S,13R)-6-(4-chloro-2-(4-(2-((dimethylamino)methyl)-1-methyl-1H-imidazol-5-yl)phenoxy)-6-fluorobenzyl)-13-(4-chlorobenzyl)-10-(methoxymethyl)-7,12-dimethyl-3-((6-methylpyridin-2-yl)methyl)-1,6,9,12-tetraazabicyclo[11.3.1]heptadecane-2,5,8,11-tetraone] displayed a ring closure, yield of all isomers of 33%. At human PCSK9, the IC50 is 0.549 nM and the Max % inhibition came to 112.1%.

Consider `C[C@H]1C(=O)N[C@@H](CO)C(=O)N[C@@]2(Cc3ccc(Cl)cc3)CCCN(C2)C(=O)[C@H](Cc2ccccc2)NC(=O)N1Cc1ccc(Cl)cc1Oc1ccc(-c2cnc(CN(C)C)n2C)cc1.Cl` [Compound 60, (3S,7S,10S,13R)-3-benzyl-6-(4-chloro-2-(4-(2-((dimethylamino)methyl)-1-methyl-1H-imidazol-5-yl)phenoxy)benzyl)-13-(4-chlorobenzyl)-10-(hydroxymethyl)-7-methyl-1,4,6,9,12-pentaaza-bicyclo[11.3.1]-heptadecane-2,5,8,11-tetraone hydrochloride], for which the ring closure, yield of all isomers in series [1] (from C[C@@H](C(=O)N[C@@H](CO)C(=O)N[C@@]1(Cc2ccc(Cl)cc2)CCCNC1)N(Cc1ccc(Cl)cc1Oc1ccc(-c2cnc(CN(C)C)n2C)cc1)C(=O)N[C@@H](Cc1ccccc1)C(=O)O, amide bond, HATU/HOAt/2,6-lutidine, 1.0 mM, 25.0 °C, 2.5 h) came to 55%. Moreover, at human PCSK9, the IC50 was found to be 0.476 nM and the Max % inhibition is given as 106.6%.

`C[C@H]1C(=O)N[C@@H](CO)C(=O)N[C@@]2(Cc3ccc(Cl)cc3)CCCN(C2)C(=O)[C@H](Cc2ccccc2)OC(=O)N1Cc1ccc(Cl)cc1Oc1ccc(-c2cnc(CN(C)C)n2C)cc1.Cl` [Compound 78, (3S,7S,10S,13R)-3-benzyl-6-(4-chloro-2-(4-(2-((dimethylamino)methyl)-1-methyl-1H-imidazol-5-yl)phenoxy)benzyl)-13-(4-chlorobenzyl)-10-(hydroxymethyl)-7-methyl-4-oxa-1,6,9,12-tetraazabicyclo[11.3.1]heptadecane-2,5,8,11-tetraone hydrochloride] gave a ring closure, yield of all isomers in series [1] (from C[C@@H](C(=O)N[C@@H](CO)C(=O)N[C@@]1(Cc2ccc(Cl)cc2)CCCNC1)N(Cc1ccc(Cl)cc1Oc1ccc(-c2cnc(CN(C)C)n2C)cc1)C(=O)O[C@@H](Cc1ccccc1)C(=O)O, amide bond, HATU/HOAt, 2,6-lutidine, 1.0 mM, 25.0 °C, 2.25 h, 2 steps) of 38%. In addition, at human PCSK9, the IC50 was found to be 0.859 nM and the Max % inhibition worked out at 99.2%.

For the molecule `C[C@H]1C(=O)N[C@@H](CO)C(=O)N(C)[C@H](Cc2ccc(Cl)cc2)CN(C)C(=O)[C@H]([C@H]2CCc3ccccc32)CC(=O)N1Cc1ccc(Cl)cc1Oc1ccc(-c2cnc(CN3CCCC3)n2C)cc1.Cl` [Compound 86, (2S,5S,8R,12S)-1-(4-chloro-2-(4-(1-methyl-2-(pyrrolidin-1-ylmethyl)-1H-imidazol-5-yl)phenoxy)-benzyl)-8-(4-chlorobenzyl)-12-((R)-2,3-dihydro-1H-inden-1-yl)-5-(hydroxymethyl)-2,7,10-trimethyl-1,4,7,10-tetraazacyclotetradecane-3,6,11,14-tetraone hydrochloride], in series [1] (from C[C@H](NCc1ccc(Cl)cc1Oc1ccc(-c2cnc(CN3CCCC3)n2C)cc1)C(=O)N[C@@H](COC(C)(C)C)C(=O)N(C)[C@H](Cc1ccc(Cl)cc1)CN(C)C(=O)[C@@H](CC(=O)O)[C@H]1CCc2ccccc21, amide bond, HATU, 1.0 mM, 40.0 °C, 29.0 h, 2 steps), the ring closure, yield of all isomers stood at 45%. On human PCSK9, the IC50 was determined as 0.941 nM and the Max % inhibition came to 99.4%.

The molecule `COC[C@@H]1NC(=O)[C@H](C)N(Cc2ccc(Cl)cc2Oc2ccc(-c3cnc(CN4CCCC4)n3C)cc2)C(=O)C[C@@H]([C@H]2CCc3ccccc32)C(=O)N2CCC[C@@](Cc3ccc(Cl)cc3)(C2)NC1=O.O=C(O)C(F)(F)F` [Compound 96, (3S,7S,10S,13R)-6-(4-chloro-2-(4-(1-methyl-2-(pyrrolidin-1-ylmethyl)-1H-imidazol-5-yl)phenoxy)benzyl)-13-(4-chlorobenzyl)-3-((R)-2,3-dihydro-1H-inden-1-yl)-10-(methoxymethyl)-7-methyl-1,6,9,12-tetraazabicyclo[11.3.1]heptadecane-2,5,8,11-tetraone trifluoroacetate] came in with a ring closure, yield of all isomers in series [1] (from COC[C@H](NC(=O)[C@H](C)NCc1ccc(Cl)cc1Oc1ccc(-c2cnc(CN3CCCC3)n2C)cc1)C(=O)N[C@@]1(Cc2ccc(Cl)cc2)CCCN(C(=O)[C@@H](CC(=O)O)[C@H]2CCc3ccccc32)C1, amide bond, HATU/HOAt/2,6-lutidine, 1.04 mM, 40.0 °C, 17.0 h) of 46%. Also, on human PCSK9, the IC50 came to 2.21 nM and the Max % inhibition worked out at 96.3%.

Consider `COC[C@@H]1NC(=O)[C@H](C)N(Cc2ccc(Cl)cc2Oc2ccc(-c3cnc(CN(C)C)n3C)cc2)CC[C@@H](Cc2ccccc2)C(=O)N2CCC[C@@](Cc3ccc(Cl)cc3)(C2)NC1=O.O=C(O)C(F)(F)F` [Compound 120, (3R,7S,10S,13R)-3-benzyl-6-(4-chloro-2-(4-(2-((dimethylamino)methyl)-1-methyl-1H-imidazol-5-yl)phenoxy)benzyl)-13-(4-chlorobenzyl)-10-(methoxymethyl)-7-methyl-1,6,9,12-tetraazabicyclo[11.3.1]heptadecane-2,8,11-trione trifluoroacetate], for which the ring closure, yield of all isomers in series [1] (from COC[C@H](NC(=O)[C@H](C)N)C(=O)N[C@@]1(Cc2ccc(Cl)cc2)CCCN(C(=O)[C@@H](CC=O)Cc2ccccc2)C1, amine bond, NaBH(OAc)3/AcOH, 10.0 mM, 25.0 °C, 2.5 h, 4 steps) worked out at 0.6%. Besides, on human PCSK9, the IC50 came out at 61.2 nM and the Max % inhibition is listed as 102.4%.

The molecule `CC(C)[C@H]1CC(=O)N(Cc2ccc(Cl)cc2Oc2ccc(-c3cnc(CN(C)C)n3C)cc2)[C@@H](C)C(=O)N[C@@H](CO)C(=O)N[C@@]2(Cc3ccc(Cl)cc3)CCCN(C2)C1=O.Cl` [Compound 133, (3R,7S,10S,13R)-6-(4-chloro-2-(4-(2-((dimethylamino)methyl)-1-methyl-1H-imidazol-5-yl)phenoxy)benzyl)-13-(4-chlorobenzyl)-10-(hydroxymethyl)-3-isopropyl-7-methyl-1,6,9,12-tetraazabicyclo[11.3.1]heptadecane-2,5,8,11-tetraone hydrochloride] gave a ring closure, yield of all isomers in series [1] (from CC(C)[C@@H](CC(=O)N(Cc1ccc(Cl)cc1Oc1ccc(-c2cnc(CN(C)C)n2C)cc1)[C@@H](C)C(=O)N[C@@H](CO)C(=O)N[C@@]1(Cc2ccc(Cl)cc2)CCCNC1)C(=O)O, amide bond, HATU, 1.0 mM, 25.0 °C, 17.0 h) of 59%. Moreover, on human PCSK9, the IC50 worked out at 1490 nM and the Max % inhibition was 76.9%.

Turning to `COC[C@@H]1NC(=O)[C@H](C)N(Cc2ccc(Cl)cc2Oc2ccc(-c3cnc(CN(C)C)n3C)cc2)C(=O)O[C@@H](Cc2ccccc2)C(=O)N2CCC[C@@](Cc3ccc(Cl)cc3)(C2)NC1=O.Cl` [Compound 156, (3S,7S,10S,13R)-3-benzyl-6-(4-chloro-2-(4-(2-((dimethylamino)methyl)-1-methyl-1H-imidazol-5-yl)-phenoxy)benzyl)-13-(4-chlorobenzyl)-10-(methoxymethyl)-7-methyl-4-oxa-1,6,9,12-tetraazabicyclo[11.3.1]heptadecane-2,5,8,11-tetraone hydrochloride], in series [1] (from COC[C@H](NC(=O)[C@H](C)N(Cc1ccc(Cl)cc1Oc1ccc(-c2cnc(CN(C)C)n2C)cc1)C(=O)O[C@@H](Cc1ccccc1)C(=O)O)C(=O)N[C@@]1(Cc2ccc(Cl)cc2)CCCNC1, amide bond, HATU/HOAt, 2,6-lutidine, 0.95 mM, 25.0 °C, 1.5 h), the ring closure, yield of all isomers is 38%. For the same molecule, on human PCSK9, the IC50 turned out to be 9.21 nM and the Max % inhibition is 100.8%.
